This note sets out measurements from patent US8329704B2, “Substituted pyrazinone derivatives for use in MCH-1 mediated diseases” (Janssen Pharmaceutica, N.V., priority 2005, dated 2012).

Structures are written as SMILES. Bounds are passed on as bounds.

The experiment addresses T1, human MCH-1 receptor (Homo sapiens, UniProt Q99705).
T1 construct: expressed in transfected cells
Briefly: Ca2+ mobilization experiment for the MCH-1 receptor (FLIPR), inhibition of MCH-induced Ca2+ mobilization. To be noted: CHO cells stably expressing human MCH-1 receptor, inhibition of MCH-induced Ca2+ response, read-out: MCH-1 pIC50 (converted). Format: cell-based. As to the method:
The interaction of the compounds of Formula (I) with MCH-1 receptors was assessed in in vitro transient calcium (Ca^2+) mobilization assays in the fluorimetric imaging plate reader (FLIPR) format (Sullivan et al. 1999, Methods Mol Biol 114:125-133). In general, the natural agonist (MCH) is incubated with cells expressing the MCH-1 receptor, which elicits a concentration-dependent transient mobilization of Ca^2+ from internal stores. The interaction of the test compounds with the receptor is assessed in competition experiments. Various concentrations of the test compound are added to the incubation mixture containing the receptor-expressing cells and a submaximal concentration of MCH. The test compound in proportion to its antagonist potency and its concentration inhibits MCH-induced Ca^2+ mobilization.
Chinese Hamster ovary cells (CHO) stably expressing the human MCH-1 receptor are grown in a 1:1 mixture of Dulbecco's Modified Eagles Medium (DMEM) and HAM's F12 medium including Glutamax™ (Invitrogen), supplemented with 10% heat-inactivated fetal bovine serum and 400 μg/ml geneticin.
Twenty-four hours before the experiment, MCH-1 receptor-expressing CHO cells are seeded in 20 μl (5,000 cells per well) into 384-well black wall, clear bottom microtiter plates (Costar). On the day of the experiment, 20 μl per well calcium assay kit containing 10 mM probenicide (Molecular Devices) is added. Cells are loaded for 90 min at 37° C. and 5% CO2 in a cell culture incubator. After loading, 20 μl of serial dilutions of the test compound are added and cells are further incubated for 20 min at room temperature in the dark. After 20 min, 20 μl of a submaximal MCH concentration is added and changes in intracellular calcium are recorded directly in a FLIPR III apparatus (Molecular devices).
Data from assays in the presence of compound were calculated as a percentage of total Ca^2+-responses measured in the absence of test compound. Inhibition curves, plotting percent of total Ca^2+-responses versus the log value of the concentration of the test compound, were automatically generated, and sigmoidal inhibition curves were fitted using non-linear regression. The pIC50 values of test compounds were derived from individual curves.
(In general: A change in cytosolic calcium serves as a functional read-out for many receptors and channels.)

T1 sequence (Q99705 whole entry): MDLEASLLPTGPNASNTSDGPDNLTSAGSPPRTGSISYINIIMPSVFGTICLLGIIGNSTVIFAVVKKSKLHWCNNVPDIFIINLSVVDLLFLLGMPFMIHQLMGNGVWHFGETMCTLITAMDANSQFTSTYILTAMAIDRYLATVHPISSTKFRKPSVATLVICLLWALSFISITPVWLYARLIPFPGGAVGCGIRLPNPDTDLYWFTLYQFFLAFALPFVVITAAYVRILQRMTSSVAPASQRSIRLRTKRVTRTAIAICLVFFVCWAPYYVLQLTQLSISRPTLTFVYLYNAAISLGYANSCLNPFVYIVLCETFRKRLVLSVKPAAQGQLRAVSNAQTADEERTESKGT

Consider `COc1cc(-n2ccnc(NCCc3ccccc3)c2=O)ccc1N1CCC(N(C)C2CC2)C1` (centres unmarked) [3-17], for which the IC50 is 79.4 nM.
With `COc1cc(-n2ccnc(NCCOc3ccccc3)c2=O)ccc1OC1CCNCC1` [1-58], the IC50 is 63.1 nM.
On to `COc1cc(-n2ccnc(NCCOc3ccccc3)c2=O)ccc1OCCCN1CCOCC1` [1-80], for which the IC50 is 63.1 nM.
Take `COc1cc(-n2ccnc(NCCOc3ccccc3)c2=O)ccc1OCCN1CCCC1` [1-67]: the IC50 is 63.1 nM.
Then `O=c1c(NCCOc2ccccc2Cl)nccn1-c1ccc(OCCN2CCCC2)cc1` [2-27], with 251 nM; and `COc1cc(-n2ccnc(NCCc3ccccc3)c2=O)ccc1OCCN1CCOC[C@H]1C` [3-61], with 79.4 nM.
Regarding `COc1cc(-n2ccnc(NCCc3ccccc3)c2=O)ccc1NC1CC2COCC(C1)N2` (centres unmarked) [3-27], the IC50 was 79.4 nM.
Then `O=c1c(NCCOc2ccccc2)nccn1-c1ccc(N2CCNCC2)cc1` [1-06], with 2000 nM; and `CN[C@H]1CCN(c2ccc(-n3ccnc(SCCc4ccccc4)c3=O)cc2OC)C1` [6-02], with 10 nM.
For `COc1cc(-n2ccnc(NCCc3ccccc3)c2=O)ccc1OCCN1C(C)COCC1C` (centres unmarked) [3-62], the IC50 was 39.8 nM.
For `COc1cc(-n2ccnc(NCCc3ccccc3)c2=O)ccc1OC1CCN(C)C1` (centres unmarked) [3-32], the IC50 was 79.4 nM.
`COc1cc(-n2ccnc(NCCc3ccccc3)c2=O)ccc1N1CCC(NC2CC2)C1` (centres unmarked) [3-16]: the IC50 is 50.1 nM.
Then `O=c1c(NCCOc2ccccc2)nccn1-c1ccc(OCCN2CCCC2)c(Cl)c1` [1-56], with 7940 nM; and `COc1cc(-n2ccnc(NCCOc3ccccc3)c2=O)ccc1OCCCN1CCC(O)C1` (centres unmarked) [1-76], with 126 nM.
As to `COc1cc(-n2ccnc(NCCc3ccccc3)c2=O)ccc1OCCN1CCC(C(N)=O)CC1` [3-53], the IC50 was 50.1 nM.
Then `CC(=O)N(C)C1CCN(c2ccc(-n3ccnc(NCCOc4ccccc4)c3=O)cc2)C1` (centres unmarked) [1-02], with 251 nM; and `COc1cc(-n2ccnc(NCCc3ccccc3)c2=O)ccc1OCCN1CCNC(=O)C1` [3-65], with 158 nM; and `C=CCc1cc(-n2ccnc(NCCOc3ccccc3)c2=O)ccc1OCCN1CCCC1` [1-49], with 31.6 nM.
Turning to `COc1cc(-n2ccnc(NCCc3ccccc3)c2=O)ccc1N1CCC(NC(C)=O)C1` (centres unmarked) [3-09], the IC50 was 63.1 nM.
Consider `O=c1c(NCCOc2ccccc2)nccn1-c1ccc(OCCN2CCC(O)C2)cc1` (centres unmarked) [1-36], for which the IC50 was 316 nM.
With `CNC1CCN(c2ccc(-n3ccnc(NCCc4ccccc4)c3=O)cc2OC)C1` (centres unmarked) [3-12], the IC50 was 63.1 nM.
Then `COc1cc(-n2ccnc(NCCOc3ccccc3)c2=O)ccc1N1CCC(NC(C)=O)CC1` [1-14], with 316 nM; and `COc1cc(-n2ccnc(NCCc3ccccc3)c2=O)ccc1OCCN1CCOC(CO)C1` (centres unmarked) [3-64], with 100 nM.
For the molecule `COc1cc(-n2ccnc(NCCc3ccccc3)c2=O)ccc1OCCN1CCC(C#N)CC1` [3-51], the IC50 is 39.8 nM.
Consider `COc1cc(-n2ccnc(NCCOc3ccccc3)c2=O)ccc1N1CCC(N)CC1` [1-13], for which the IC50 is 79.4 nM.
Then `COc1cc(-n2ccnc(NCCc3ccccc3)c2=O)ccc1OCCNC1CC1` [3-41], with 25.1 nM; and `O=c1c(NCCOc2ccccc2)nccn1-c1ccc(OCCN2CCCC2)nc1` [3-91], with 3980 nM; and `COc1cc(-n2ccnc(CCCc3ccccc3)c2=O)ccc1OCCN1CCCC1` [2-01], with 126 nM.
Then `CC(C)C(=O)N(C)C1CCN(c2ccc(-n3ccnc(NCCOc4ccccc4)c3=O)cc2)C1` (centres unmarked) [1-03], with 39.8 nM; and `O=c1c(NCCOc2ccccc2)nccn1-c1ccc(NCCN2CCCC2)cc1` [1-20], with 200 nM.
In the case of `COc1cc(-n2ccnc(NCCOc3ccccc3)c2=O)ccc1N1CCC(O)C1` (centres unmarked) [1-08], the IC50 was 398 nM.
Regarding `COc1cc(-n2ccnc(SCCc3ccccc3)c2=O)ccc1OC1CCN(C)C1` (centres unmarked) [6-15], the IC50 was 15.8 nM.
With `COc1cc(-n2ccnc(NCCOc3ccccc3)c2=O)ccc1OC1CNC1` [1-57], the IC50 is 63.1 nM.
For the molecule `COc1cc(-n2ccnc(N3CCC(c4ccc(C)cc4)C3)c2=O)ccc1OCCN1CCCC1` (centres unmarked) [4-04], the IC50 is 316 nM.
On to `CCN(C)C1CCN(c2ccc(-n3ccnc(NCCc4ccccc4)c3=O)cc2OC)C1` (centres unmarked) [3-14], for which the IC50 was 50.1 nM.
Turning to `CN(C)CCN1CCc2cc(-n3ccnc(NCCOc4ccccc4)c3=O)ccc21` [3-84], the IC50 was 79.4 nM.
Regarding `CCCC(=O)NCCOc1ccc(-n2ccnc(NCCc3ccccc3)c2=O)cc1OC` [3-39], the IC50 is 63.1 nM.
Then `CN(CCOc1ccc(-n2ccnc(NCCOc3ccccc3)c2=O)cc1)CCc1ccccc1` [1-32], with 794 nM.
In the case of `O=c1c(NCCOc2ccccc2)nccn1-c1ccc(OCCCN2CCCC2)cc1` [1-46], the IC50 was 3160 nM.
Then `CC(=O)c1cc(-n2ccnc(NCCOc3ccccc3)c2=O)ccc1OCCN1CCCC1` [1-53], with 100 nM.
As for `COc1cc(-n2ccnc(NCCc3ccccc3)c2=O)ccc1N1CCN(C)CC1` [3-11], the IC50 is 39.8 nM.
With `COc1cc(-n2ccnc(NCCc3ccccc3)c2=O)ccc1OCCN1CCC(F)(F)CC1` [3-56], the IC50 is 39.8 nM.
Regarding `CN(C1CCN(c2ccc(-n3ccnc(NCCOc4ccccc4)c3=O)cc2)C1)S(C)(=O)=O` (centres unmarked) [1-05], the IC50 was above 10000 nM.
`CC(C)(C)OC(=O)N1CCN(c2ccc(-n3ccnc(NCCc4ccccc4)c3=O)cc2)CC1` [3-07]: the IC50 is 501 nM.
`COc1cc(-n2ccnc(NCCCOc3ccccc3)c2=O)ccc1OCCN(C)C(C)=O` [7-03]: the IC50 was 31.6 nM.
Regarding `COc1cc(-n2ccnc(SCCc3ccccc3)c2=O)ccc1C=CCN1CCCC1` [6-12], the IC50 is 25.1 nM.
On to `COc1cc(-n2ccnc(NCCCOc3ccccc3)c2=O)ccc1OC1CCNCC1` [7-01], for which the IC50 was 31.6 nM.
On to `O=c1c(NCCc2ccccc2)nccn1-c1ccc(N2CCN(CCO)CC2)c(Cl)c1` [3-79], for which the IC50 is 63.1 nM.
With `COc1cc(-n2ccnc(NCCc3ccccc3)c2=O)ccc1N1CCC(N(C)C)C1` (centres unmarked) [3-13], the IC50 is 50.1 nM.
For `COc1cc(-n2ccnc(NCCc3ccccc3)c2=O)ccc1OCCN1CCOCC1` [3-59], the IC50 is 50.1 nM.
Consider `COC(=O)C1CCN(CCOc2ccc(-n3ccnc(NCCOc4ccccc4)c3=O)cc2)CC1` [1-42], for which the IC50 is 158 nM.
Consider `O=c1c(NCCOc2ccccc2)nccn1-c1ccc(OCCN2CCN(c3ccccc3)CC2)cc1` [1-45], for which the IC50 was 794 nM.
Take `COc1cc(-n2ccnc(NCCc3ccccc3)c2=O)ccc1OCCN1CCCC(C(N)=O)C1` (centres unmarked) [3-52]: the IC50 is 39.8 nM.
As to `COc1cc(-n2ccnc(OCCc3ccccc3)c2=O)ccc1OCCN1CCCC1` [2-06], the IC50 is 79.4 nM.
Then `CCCN(C)CCOc1ccc(-n2ccnc(NCCOc3ccccc3)c2=O)cc1` [1-24], with 158 nM; and `COc1cc(-n2ccnc(NCCc3ccccc3)c2=O)ccc1OCCN1CCC2(CC1)OCCO2` [3-58], with 50.1 nM.
Then `CC(C)C(=O)N(C)C1CCN(c2ccc(-n3ccnc(NCCc4ccccc4)c3=O)cc2)C1` (centres unmarked) [3-04], with 100 nM; and `O=c1c(NCCOc2ccccc2)nccn1-c1ccc(OCCN2CCC(F)CC2)cc1` [1-39], with 200 nM; and `COc1cc(-n2ccnc(NCCCOc3ccccc3)c2=O)ccc1OCCN1CCCC1` [2-13], with 15.8 nM.
As for `COCc1cc(-n2ccnc(NCCOc3ccccc3)c2=O)ccc1OCCN1CCCC1` [1-52], the IC50 is 158 nM.
For `COc1cc(-n2ccnc(NCCCOc3ccc(Cl)cc3)c2=O)ccc1OCCN1CCCC1` [2-32], the IC50 was 63.1 nM.
In the case of `COc1cc(-n2ccnc(NCCOc3ccccc3)c2=O)ccc1N1CCC(N(C)C)C1` (centres unmarked) [1-10], the IC50 is 100 nM.
As for `COc1cc(-n2ccnc(NCCc3ccccc3)c2=O)ccc1C=CCN1CCOCC1` [3-23], the IC50 is 39.8 nM.
As to `COc1cc(-n2ccnc(NCCOc3ccccc3)c2=O)ccc1OCCN1CCC(F)CC1` [1-70], the IC50 is 12.6 nM.
Take `COc1cc(-n2ccnc(NCCc3ccccc3)c2=O)ccc1OCCCN1CCC(F)(F)CC1` [3-74]: the IC50 is 31.6 nM.
Then `COc1cc(-n2ccnc(NCCOc3ccccc3)c2=O)ccc1OCCCN1CCCC(CO)C1` (centres unmarked) [1-78], with 79.4 nM.
Then `COc1cc(-n2ccnc(SCCc3ccccc3)c2=O)ccc1N1CCOCC1` [6-10], with 63.1 nM; and `COc1cc(-n2ccnc(NCCc3ccccc3)c2=O)ccc1OCCCN1CCC(F)CC1` [3-72], with 25.1 nM; and `COc1cc(-n2ccnc(NCCc3ccccc3)c2=O)ccc1OCCCN(C)C1CC1` [3-68], with 39.8 nM.
With `COc1cccc(C2CCN(c3nccn(-c4ccc(OCCN5CCCC5)c(OC)c4)c3=O)C2)c1` (centres unmarked) [4-07], the IC50 was 631 nM.
Then `O=C1CCC(=O)N1CCOc1ccc(-n2ccnc(NCCOc3ccccc3)c2=O)cc1` [1-37], with 100 nM.
